Among the data in patent publication US20230192705A1, “SHP2 INHIBITORS, COMPOSITIONS AND USES THEREOF” (Betta Pharmaceuticals Co., Ltd, priority 2020, published 2023) are IC50 values, retold here.

A value given as a limit tells only on which side of the number the result lay.

The target of the first test is T1, SHP2 (Homo sapiens, UniProt Q06124).
T1 sequence (Q06124 1-593): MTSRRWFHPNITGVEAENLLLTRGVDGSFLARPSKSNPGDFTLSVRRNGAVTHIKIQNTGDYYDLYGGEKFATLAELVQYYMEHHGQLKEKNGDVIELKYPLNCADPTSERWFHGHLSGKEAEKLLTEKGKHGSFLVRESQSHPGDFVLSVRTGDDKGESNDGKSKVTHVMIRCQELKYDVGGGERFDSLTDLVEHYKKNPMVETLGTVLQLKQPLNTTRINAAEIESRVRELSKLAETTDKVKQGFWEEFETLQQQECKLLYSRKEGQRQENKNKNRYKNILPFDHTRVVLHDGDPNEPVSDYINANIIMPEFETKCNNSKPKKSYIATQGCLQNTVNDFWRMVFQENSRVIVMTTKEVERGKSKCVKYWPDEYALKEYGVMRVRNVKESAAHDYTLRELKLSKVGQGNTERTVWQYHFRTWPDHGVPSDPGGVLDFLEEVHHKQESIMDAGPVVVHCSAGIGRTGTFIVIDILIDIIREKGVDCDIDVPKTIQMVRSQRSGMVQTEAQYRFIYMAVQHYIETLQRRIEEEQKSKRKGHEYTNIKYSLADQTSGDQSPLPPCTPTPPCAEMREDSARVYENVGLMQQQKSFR
The test can be described thus: SHP2 allosteric inhibitor enzyme activity assay (DiFMUP fluorescence). In kind it is biochemical. The conditions noted are these: class symbols. A digest of the protocol: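 SHP2 activated by 0.5 μM IRS1_pY1172(dPEG8)pY1222 peptide, 0.2 ng enzyme per well, 1 h at room temperature with compound (1 μM top, 3-fold series), then DiFMUP substrate 1 h. Buffer: 60 mM HEPES, 75 mM NaCl, 75 mM KCl, 0.05% BRIJ-35, 1 mM EDTA, 5 mM DTT. Fluorescence ex 340/em 450 nm; IC50 by variable-slope fit.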
`N[C@@H]1c2ccccc2CC12CCN(c1nc3[nH]nc(C4(c5cccc6c5CC(=O)N6)CC4)c3c(=O)[nH]1)CC2` [Example 82, (S)-6-(1-amino-1,3-dihydrospiro[indene-2,4′-piperidin]-1′-yl)-3-(1-(2-oxoindolin-4-yl)cyclopropyl)-1,5-dihydro-4H-pyrazolo[3,4-d]pyrimidin-4-one] had an IC50 not above 20 nM.
`N[C@@H]1c2ccccc2CC12CCN(c1nc3[nH]nc(C4(c5ccnc(NC6CCC6)c5Cl)CC4)c3c(=O)[nH]1)CC2` [Example 67, (S)-6-(1-amino-1,3-dihydrospiro[indene-2,4′-piperidin]-1′-yl)-3-(1-(3-chloro-2-(cyclobutylamino)pyridin-4-yl)cyclopropyl)-1,5-dihydro-4H-pyrazolo[3,4-d]pyrimidin-4-one] yielded a 50% inhibitory concentration (IC50) not above 20 nM.
With `COCCOc1cccc(C2(c3n[nH]c4nc(N5CCC6(CC5)Cc5ccccc5[C@H]6N)[nH]c(=O)c34)CC2)c1` [Example 44, (S)-6-(1-amino-1,3-dihydrospiro[indene-2,4′-piperidin]-1′-yl)-3-(1-(3-(2-methoxyethoxy)phenyl)cycloprop-yl)-1,5-dihydro-4H-pyrazolo[3,4-d]pyrimidin-4-one], the half-inhibitory concentration (IC50) is not above 20 nM.
The same measure, in the same setting: to `Cc1snnc1C1(c2n[nH]c3nc(N4CCC5(CC4)Cc4ccccc4[C@H]5N)[nH]c(=O)c23)CC1` [Example 241, (S)-6-(1-amino-1,3-dihydrospiro[indene-2,4′-piperidin]-1′-yl)-3-(1-(5-methyl-1,2,3-thiadiazol-4-yl)cyclopropyl)-1,5-dihydro-4H-pyrazolo[3,4-d]pyrimidin-4-one] belongs not above 20 nM; to `CN(C)c1cc(C2(c3n[nH]c4nc(N5CCC6(CC5)Cc5ccccc5[C@H]6N)[nH]c(=O)c34)CC2)ccn1` [Example 54, (S)-6-(1-amino-1,3-dihydrospiro[indene-2,4′-piperidin]-1′-yl)-3-(1-(2-(dimethylamino)pyridin-4-yl)cyclopropyl)-1,5-dihydro-4H-pyrazolo[3,4-d]pyrimidin-4-one], not above 20 nM.
`C[C@@H]1OCC2(CCN(c3ncc(C4(c5ccccc5)CC4)nc3C(N)=O)CC2)[C@@H]1N` [Example 259, 3-((3S,4S)-4-amino-3-methyl-2-oxa-8-azaspiro[4.5]decan-8-yl)-6-(1-phenylcyclopropyl)pyrazine-2-carboxamide] registered an IC50 of more than 60 nM.
Still for that read-out and setting: to `N[C@@H]1c2ccccc2CC12CCN(c1nc3[nH]nc(C4(c5ccc6nccnc6c5)CC4)c3c(=O)[nH]1)CC2` [Example 32, (S)-6-(1-amino-1,3-dihydrospiro[indene-2,4′-piperidin]-1′-yl)-3-(1-(quinoxalin-6-yl)cyclopropyl)-1,5-diliydro-4H-pyrazolo[3,4-d]pyrimidin-4-one] belongs 20 to 60 nM; to `N[C@@H]1c2ccccc2CC12CCN(c1nc3[nH]nc(C4=CCCc5sccc54)c3c(=O)[nH]1)CC2` [Example 117, (S)-6-(1-amino-1,3-dihydrospiro[indene-2,4′-piperidin]-1′-yl)-3-(6,7-dihydrobenzo[b]thiophen-4-yl)-1,5-dihydro-4H-pyrazolo[3,4-d]pyrimidin-4-one], not above 20 nM.
Same read-out and setting: the figure for `CC1(C)CC=C(c2n[nH]c3nc(N4CCC5(CC4)Cc4ccccc4C5N)[nH]c(=O)c23)c2cccnc21` (centres unmarked) [Example 127, 6-(1-amino-1,3-dihydrospiro[indene-2,4′-piperidin]-1′-yl)-3-(8,8-dimethyl-7,8-dihydroquinolin-5-yl)-1,5-dihydro-4H-pyrazolo[3,4-d]pyrimidin-4-one] is not above 20 nM.
Compound `N[C@@H]1c2ccccc2CC12CCN(c1nc3[nH]nc(C4=CCC5(CC5)c5ncccc54)c3c(=O)[nH]1)CC2` [Example 133, (S)-6-(1-amino-1,3-dihydrospiro[indene-2,4′-piperidin]-1′-yl)-3-(7′H-spiro[cyclopropane-1,8′-quinolin]-5′-yl)-1,5-dihydro-4H-pyrazolo[3,4-d]pyrimidin-4-one] registered an IC50 not above 20 nM.
Same read-out and setting: to `Cc1nc2c(s1)C(c1n[nH]c3nc(N4CCC5(CC4)Cc4ccccc4C5N)[nH]c(=O)c13)=CC(C)(C)C2` (centres unmarked) [Example 129] belongs 20 to 60 nM; to `N[C@@H]1c2ccccc2CC12CCN(c1nc3[nH]nc(C4(c5ccccc5F)CC4)c3c(=O)[nH]1)CC2` [Example 220, (S)-6-(1-amino-1,3-dihydrospiro[indene-2,4′-piperidin]-1′-yl)-3-(1-(2-fluorophenyl)cyclopropyl)-1,5-dihydro-4H-pyrazolo[3,4-d]pyrimidin-4-one], not above 20 nM.
On the same count and under the same terms, to `N[C@@H]1COCC12CCN(c1nc3[nH]nc(C4(c5nc6ccccc6o5)CC4)c3c(=O)[nH]1)CC2` [Example 282, (S)-6-(4-amino-2-oxa-8-azaspiro[4.5]decan-8-yl)-3-(1-(benzo[d]oxazol-2-yl)cyclopropyl)-1,5-dihydro-4H-pyrazolo[3,4-d]pyrimidin-4-one] belongs 20 to 60 nM; to `CC1(C)CC(c2n[nH]c3nc(N4CCC5(CC4)Cc4ccccc4[C@H]5N)[nH]c(=O)c23)c2cccc(F)c21` (stereo partly drawn) [Example 109, 6-((S)-1-amino-1,3-dihydrospiro[indene-2,4′-piperidin]-1′-yl)-3-(4-fluoro-3,3-dimethyl-2,3-dihydro-1H-inden-1-yl)-1,5-dihydro-4H-pyrazolo[3,4-d]pyrimidin-4-one], not above 20 nM; to `CC1(C)C=C(c2n[nH]c3nc(N4CCC5(CC4)Cc4ccccc4[C@H]5N)[nH]c(=O)c23)c2ccc(C#N)nc2C1` [Example 162, (S)-5-(6-(1-amino-1,3-dihydrospiro[indene-2,4′-piperidin]-1′-yl)-4-oxo-4,5-dihydro-1H-pyrazolo[3,4-d]pyrimidin-3-yl)-7,7-dimethyl-7,8-dihydroquinoline-2-carbonitrile], not above 20 nM.
On the same count and under the same terms, to `N[C@@H]1c2ccccc2CC12CCN(c1nc3[nH]nc(C4(c5ccc(Cl)cc5Cl)CC4)c3c(=O)[nH]1)CC2` [Example 235, (S)-6-(1-amino-1,3-dihydrospiro[indene-2,4′-piperidin]-1′-yl)-3-(1-(2,4-dichlorophenyl)cyclopropyl)-1,5-dihydro-4H-pyrazolo[3,4-d]pyrimidin-4-one] belongs not above 20 nM; to `COc1nccc(C2(c3n[nH]c4nc(N5CCC6(CC5)Cc5ccccc5[C@H]6N)[nH]c(=O)c34)CC2)c1Cl` [Example 62, (S)-6-(1-amino-1,3-dihydrospiro[indene-2,4′-piperidin]-1′-yl)-3-(1-(3-chloro-2-methoxypyridin-4-yl)cyclopropyl)-1,5-dihydro-4H-pyrazolo[3,4-d]pyrimidin-4-one], not above 20 nM.
Compound `Nc1nccc(C2(c3n[nH]c4nc(N5CCC6(CC5)Cc5ccccc5[C@H]6N)[nH]c(=O)c34)CC2)c1Cl` [Example 46, (S)-6-(1-amino-1,3-dihydrospiro[indene-2,4′-piperidin]-1′-yl)-3-(1-(2-amino-3-chloropyridin-4-yl)cyclopropyl)-1,5-dihydro-4H-pyrazolo[3,4-d]pyrimidin-4-one] returned a half-maximal inhibitory concentration (IC50) not above 20 nM.
The same measure, in the same setting: to `N[C@@H]1Cn2nccc2C12CCN(c1nc3[nH]nc(C4(c5ccccc5)CC4)c3c(=O)[nH]1)CC2` [Example 199, (S)-6-(5′-amino-5′,6′-dihydrospiro[piperidine-4,4′-pyrrolo[1,2-b]pyrazol]-1-yl)-3-(1-phenylcyclopropyl)-1,5-dihydro-4H-pyrazolo[3,4-d]pyrimidin-4-one] belongs 20 to 60 nM.
`COc1cc(C2(c3n[nH]c4nc(N5CCC6(CC5)CO[C@@H](C)[C@H]6N)[nH]c(=O)c34)CC2)ccc1F` [Example 289, 6-((3S,4S)-4-amino-3-methyl-2-oxa-8-azaspiro[4.5]decan-8-yl)-3-(1-(4-fluoro-3-methoxyphenyl)cyclopropyl)-1,5-dihydro-4H-pyrazolo[3,4-d]pyrimidin-4-one] gave an IC50 of more than 60 nM.
Still for that read-out and setting: the figure for `COc1cccc(C2(c3n[nH]c4nc(N5CCC6(CC5)CO[C@@H](C)[C@H]6N)[nH]c(=O)c34)CC2)c1` [Example 305, 6-((3S,4S)-4-amino-3-methyl-2-oxa-8-azaspiro[4.5]decan-8-yl)-3-(1-(3-methoxyphenyl)cyclopropyl)-1,5-dihydro-4H-pyrazolo[3,4-d]pyrimidin-4-one] is 20 to 60 nM; for `C[C@@H]1OCC2(CCN(c3nc4[nH]nc(C5(c6ccc(C(F)(F)F)cc6)CC5)c4c(=O)[nH]3)CC2)[C@@H]1N` [Example 296, 6-((3S,4S)-4-amino-3-methyl-2-oxa-8-azaspiro[4.5]decan-8-yl)-3-(1-(4-(trifluoromethyl)phenyl)cyclopropyl)-1,5-dihydro-4H-pyrazolo[3,4-d]pyrimidin-4-one] it is more than 60 nM.

Staying with this test, now noted: numeric values.
In the case of `N[C@@H]1c2ccccc2CC12CCN(c1nc3[nH]nc(C4=CSCc5ccccc54)c3c(=O)[nH]1)CC2` [Example 134, (S)-6-(1-amino-1,3-dihydrospiro[indene-2,4′-piperidin]-1′-yl)-3-(1H-isothiochromen-4-yl)-1,5-dihydro-4H-pyrazolo[3,4-d]pyrimidin-4-one], 1.7 nM corresponded to half-maximal inhibition (IC50).
